# Assays:
# Royan H5 hESCs = assay: Plating efficiency (PE) of hESC clumps on coated plates, day 7; format: cell-based, human
# Experimental: The Matrigel (MG) was used as a positive control in all experiments. In the first phase, with respect to table 1, the Royan H5 cell line was cultured in CM coated plates (six-well, TPP, 92006). The CM was prepared by either 24 h or 72 h incubation of neurobasal medium (Invitrogen, 21103049) supplemented with L-Gln, β-ME, NEAAs and ITS on human dermal fibroblast (HDFs) feeder layers. The HDFs were inactivated by mitomycin C for 2 h. The mitomycin C was used with a concentration of 10 μg/ml (Sigma-Aldrich, M0503). The feeder cells were cultured at high densities and at low densities in 25 cm^2 T flasks (TPP, 90025) in 4 ml of conditioned medium (160 μl/cm^2). The high density comprised of 50000 cells/cm^2 and the low density comprised of 5000 cells/cm^2. The plates were exposed to CM for either 5 min or 150 min while coating. […]
# The plating efficiency (PE) and grading morphology were conducted in nine replications. […] Results were expressed as mean±standard deviation (SD). […] The PE (based on the ratio of undifferentiated […] colonies formed per initially seeded hESCs and hiPSCs clumps) was calculated under phase contrast inverted microscope (CKX 41, Olympus). The cloning efficiency (based on the ratio of ALP-positive colonies formed per initially seeded hESCs and hiPSCs single cells) was calculated by ImageJ software version 1.4. […]
# [1] = molecular target: Rho-associated Coiled Kinase (ROCK); settings: stated with the concentration used; no test described; cited from earlier work
substance,measurement,setting,value
Y-27632 dihydrochloride monohydrate,plating efficiency increase,Royan H5 hESCs; ROCK inhibitor in MG compared to ROCK inhibitor in culture medium only,1.5 to 2 fold
same,plating and cloning efficiency,Royan H5 hESCs; ROCKi added to ECM (MG) vs added to medium,increased plating and cloning efficiency
same,EC50,[1],800 nM
